Laboratory results as given in ChEMBL document CHEMBL4419165, “Fibcd1 for the prevention and treatment of diseases” (2014).
Calls of active or inactive are those of the source. The rule behind the calls is not given here.

Columns and labels:
[1] = biological target: T1, Fibrinogen C domain-containing protein 1 (Homo sapiens) (UniProt Q8N539); assay: Binding affinity to V5-His tagged FIBCD1 ecto-domain (54 to 461 residues) (unknown origin) assessed as reduction in binding between FIBCD1 and acetylated BSA by ELISA relative to control
T1 sequence (whole entry): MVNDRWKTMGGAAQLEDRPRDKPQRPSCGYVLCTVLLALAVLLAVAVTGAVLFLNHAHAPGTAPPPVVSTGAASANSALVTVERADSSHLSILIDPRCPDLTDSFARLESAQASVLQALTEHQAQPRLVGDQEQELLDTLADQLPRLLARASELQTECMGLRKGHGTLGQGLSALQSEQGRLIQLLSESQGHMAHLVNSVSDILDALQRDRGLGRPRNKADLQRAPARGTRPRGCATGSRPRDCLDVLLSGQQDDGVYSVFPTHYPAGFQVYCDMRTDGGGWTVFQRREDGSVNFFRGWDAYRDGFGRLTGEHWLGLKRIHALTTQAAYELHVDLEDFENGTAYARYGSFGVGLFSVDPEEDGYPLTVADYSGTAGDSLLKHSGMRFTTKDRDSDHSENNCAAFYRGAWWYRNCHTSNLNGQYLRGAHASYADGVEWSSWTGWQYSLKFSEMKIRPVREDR

[2] = biological target: T1, Fibrinogen C domain-containing protein 1 (Homo sapiens); assay: Binding affinity to V5-His tagged FIBCD1 ecto-domain (54 to 461 residues) (unknown origin) assessed as reduction in binding between FIBCD1 and acetylated BSA at 50 mM by ELISA relative to control
[3] = biological target: T1, Fibrinogen C domain-containing protein 1 (Homo sapiens); assay: Binding affinity to V5-His tagged FIBCD1 ecto-domain (54 to 461 residues) (unknown origin) expressed in HEK293 cells assessed as reduction in binding between FIBCD1 and acetylated BSA by ELISA; format: cell-based
[4] = biological target: T1, Fibrinogen C domain-containing protein 1 (Homo sapiens); assay: Binding affinity to V5-His tagged FIBCD1 ecto-domain (54 to 461 residues) (unknown origin) expressed in CHO cells assessed as reduction in endocytosis of [125I]Acetylated BSA by measuring degraded acetylated BSA level measured up to 4 hrs; format: cell-based

Ratio [1]	inhibition [2] [%]	I50 [3]	Activity [4]	Structure (SMILES)
1				N[C@H]1[C@H]([C@H](O)[C@H](O)CO)OC(O)(C(=O)O)C[C@@H]1O (stereo not given in full)
	< 50	inactive		CCC(=O)O
	< 50	inactive		O=C[C@H](O)[C@@H](O)[C@@H](O)[C@H](O)CO
	< 50	inactive		OC[C@H]1OC(O)[C@H](O)[C@@H](O)[C@@H]1O (stereo not given in full)
0.4				CC(=O)N[C@@H]1[C@@H](O)[C@@H](O)[C@@H](CO)O[C@@H]1O
	< 50	inactive		CCCC(=O)O
0.7				CC(=O)O
	< 50	inactive		OC[C@H]1OC(O)[C@@H](O)[C@@H](O)[C@@H]1O (stereo not given in full)
0.2				CC(=O)OCC[N+](C)(C)C
			Active	CCN(CC)CCCC(C)Nc1ccnc2cc(Cl)ccc12 (stereo not given)
